Measurements from patent US20230081426A1, “COMPOUNDS AND METHODS FOR KRAS MODULATION AND INDICATIONS THEREFOR” (Plexxikon Inc., priority 2020, published 2023).

Legend:
[1] = molecular target: T1, G12D-mutant human KRAS (amino acid residues 1-188) (Homo sapiens, UniProt P01116, G12D); assay: KRAS Binding Disruption Assay (AlphaScreen; biotinylated KRpep-2d analogue or RAF1-RBD), G12D; details: KRAS G12D; geometric mean; read-out: KRAS GMean IC50 (uM) MUTATION: G12D
T1 construct: G12D or G12C-mutant human KRAS (amino acid residues 1-188) with FLAG tag; made in house; host or cells: E. coli
Summary of the method: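 Compounds are titrated against 5-20 nM mutant KRAS and 5-20 nM of either a biotinylated KRpep-2d analogue or RAF1-RBD, incubated 1 h at 25° C. Disruption is detected as reduced Alpha signal after 1 h with donor and acceptor beads at 10 μg/mL.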

[2] = molecular target: T2, G12V-mutant human KRAS (amino acid residues 1-188) (Homo sapiens, UniProt P01116, G12V); assay: KRAS Binding Competition Assay (AlphaScreen; biotinylated KRpep-2d analogue), G12V; details: geometric mean, read-out: KRAS GMean IC50 (uM) MUTATION: G12V
T2 construct: G12V-mutant human KRAS (amino acid residues 1-188) with FLAG tag was purified from E. coli; made in house; host or cells: E. coli

Row | Structure (SMILES) | IC50 [1] [µM] | IC50 [2] [µM]
1 | CN1CCC[C@H]1COc1nc(N2[C@@H]3CC[C@H]2CN(C(=O)CC2CCCNC2)C3)c2ccc(-c3cc(O)cc4ccccc34)cc2n1 (stereo partly drawn) [P-0190, 1-((1R,5S)-8-(7-(3-hydroxynaphthalen-1-yl)-2-(((S)-1-methylpyrrolidin-2-yl)methoxy)quinazolin-4-yl)-3,8-diazabicyclo[3.2.1]octan-3-yl)-2-(piperidin-3-yl)ethan-1-one] | 10 to 100 | 10 to 100
2 | CN1CCC[C@H]1COc1nc(N2[C@@H]3CC[C@H]2CN(c2cnccn2)C3)c2ccc(-c3cc(O)cc4ccccc34)cc2n1 [P-0268, 4-(2-(((S)-1-methylpyrrolidin-2-yl)methoxy)-4-((1R,5S)-3-(pyrazin-2-yl)-3,8-diazabicyclo[3.2.1]octan-8-yl)quinazolin-7-yl)naphthalen-2-ol] | 10 to 100 | 10 to 100
3 | CN1CCC[C@H]1COc1nc(N2C[C@H]3CC[C@@H](C2)N3)c2ccc(-c3c[nH]c4ccccc34)cc2n1 [P-0254, 4-((1R,5S)-3,8-diazabicyclo[3.2.1]octan-3-yl)-7-(1H-indol-3-yl)-2-(((S)-1-methylpyrrolidin-2-yl)methoxy)quinazoline] | 10 to 100 | 10 to 100
4 | Oc1cc(-c2ccc3c(N4C[C@H]5CC[C@@H](C4)N5)nc(OCC45CCCN4CCC5)nc3c2Cl)c2ccccc2c1 [P-0003, 4-(4-((1R,5S)-3,8-diazabicyclo[3.2.1]octan-3-yl)-8-chloro-2-((tetrahydro-1H-pyrrolizin-7a(5H)-yl)methoxy)quinazolin-7-yl)naphthalen-2-ol] | 0.0001 to 10 | 0.0001 to 10
5 | O=C(C1C2CCC1CNC2)N1[C@@H]2CC[C@H]1CN(c1nc(OCC34CCCN3CCC4)nc3c(F)c(-c4cc(O)cc5ccccc45)ccc13)C2 (stereo partly drawn) [P-0147, (3-azabicyclo[3.2.1]octan-8-yl)((1R,5S)-3-(8-fluoro-7-(3-hydroxynaphthalen-1-yl)-2-((tetrahydro-1H-pyrrolizin-7a(5H)-yl)methoxy)quinazolin-4-yl)-3,8-diazabicyclo[3.2.1]octan-8-yl)methanone] | 0.0001 to 10 | 0.0001 to 10
6 | CN1CCC[C@H]1COc1nc(N2C[C@H]3CC[C@@H](C2)N3)c2cc(F)c(-c3c[nH]c4cccc(Cl)c34)c(F)c2n1 [P-0309, 4-((1R,5S)-3,8-diazabicyclo[3.2.1]octan-3-yl)-7-(4-chloro-1H-indol-3-yl)-6,8-difluoro-2-(((S)-1-methylpyrrolidin-2-yl)methoxy)quinazoline] | 10 to 100 | 10 to 100
7 | CN1CCC[C@H]1COc1nc(N2[C@@H]3CC[C@H]2CNC3)c2ccc(-c3cncc(Br)c3Cl)cc2n1 [P-0260, 4-((1R,5S)-3,8-diazabicyclo[3.2.1]octan-8-yl)-7-(5-bromo-4-chloropyridin-3-yl)-2-(((S)-1-methylpyrrolidin-2-yl)methoxy)quinazoline] | 10 to 100 | 10 to 100
8 | CC(=O)Nc1ccc(F)c(-c2ccc3c(N4C[C@H]5CC[C@@H](C4)N5)nc(OC[C@@H]4CCCN4C)nc3c2)c1 [P-0167, N-(3-(4-((1R,5S)-3,8-diazabicyclo[3.2.1]octan-3-yl)-2-(((S)-1-methylpyrrolidin-2-yl)methoxy)quinazolin-7-yl)-4-fluorophenyl)acetamide] | 100 to 1000 | 100 to 1000

Other lines, results leading:

Row | IC50 [1] [µM] | IC50 [2] [µM] | Structure (SMILES)
9 | 0.0001 to 10 | 10 to 100 | CN1CCC[C@H]1COc1nc(N2C[C@H]3CC[C@@H](C2)N3CC(=O)C2CCNCC2)c2ccc(-c3cc(O)cc4ccccc34)c(F)c2n1 [P-0467, 2-((1R,5S)-3-(8-fluoro-7-(3-hydroxynaphthalen-1-yl)-2-(((S)-1-methylpyrrolidin-2-yl)methoxy)quinazolin-4-yl)-3,8-diazabicyclo[3.2.1]octan-8-yl)-1-(piperidin-4-yl)ethan-1-one]
10 | 0.0001 to 10 | 0.0001 to 10 | CN1CCC[C@H]1COc1nc(N2C[C@H]3CC[C@@H](C2)N3C(=O)C(=O)Nc2ccccn2)c2ccc(-c3cc(O)cc4ccccc34)c(F)c2n1 [P-0400, 2-((1R,5S)-3-(8-fluoro-7-(3-hydroxynaphthalen-1-yl)-2-(((S)-1-methylpyrrolidin-2-yl)methoxy)quinazolin-4-yl)-3,8-diazabicyclo[3.2.1]octan-8-yl)-2-oxo-N-(pyridin-2-yl)acetamide]
11 | 0.0001 to 10 | 10 to 100 | COc1ccc2[nH]cc(-c3c(Cl)cc4c(N5C[C@H]6CC[C@@H](C5)N6)nc(OC[C@@H]5CCCN5C)nc4c3F)c2c1 [P-0319, 4-((1R,5S)-3,8-diazabicyclo[3.2.1]octan-3-yl)-6-chloro-8-fluoro-7-(5-methoxy-1H-indol-3-yl)-2-(((S)-1-methylpyrrolidin-2-yl)methoxy)quinazoline]
12 | 0.0001 to 10 | 100 to 1000 | CN1CCC[C@H]1COc1nc(N2C[C@H]3CC[C@@H](C2)N3CC(=O)N2CCOCC2)c2ccc(-c3cc(O)cc4ccccc34)c(F)c2n1 [P-0428, 2-((1R,5S)-3-(8-fluoro-7-(3-hydroxynaphthalen-1-yl)-2-(((S)-1-methylpyrrolidin-2-yl)methoxy)quinazolin-4-yl)-3,8-diazabicyclo[3.2.1]octan-8-yl)-1-morpholinoethan-1-one]
13 | 0.0001 to 10 | 10 to 100 | CN1CCc2cccc(Oc3nc(N4C[C@H]5CC[C@@H](C4)N5)c4cc(Cl)c(-c5c(O)cccc5F)c(F)c4n3)c2C1 [P-0331, 2-(4-((1R,5S)-3,8-diazabicyclo[3.2.1]octan-3-yl)-6-chloro-8-fluoro-2-((2-methyl-1,2,3,4-tetrahydroisoquinolin-8-yl)oxy)quinazolin-7-yl)-3-fluorophenol]
14 | 0.0001 to 10 | 10 to 100 | CN1CCC[C@H]1COc1nc(N2C[C@H]3CC[C@@H](C2)N3C(=O)[C@@H]2C[C@@H](O)CN2)c2ccc(-c3cc(O)cc4ccccc34)c(F)c2n1 [P-0425, ((1R,5S)-3-(8-fluoro-7-(3-hydroxynaphthalen-1-yl)-2-(((S)-1-methylpyrrolidin-2-yl)methoxy)quinazolin-4-yl)-3,8-diazabicyclo[3.2.1]octan-8-yl)((2S,4R)-4-hydroxypyrrolidin-2-yl)methanone]
15 | 10 to 100 | 10 to 100 | Oc1cc(-c2ccc3c(N4[C@@H]5CC[C@H]4CNC5)nc(Oc4cccnc4)nc3c2)c2ccccc2c1 [P-0321, 4-(4-((1R,5S)-3,8-diazabicyclo[3.2.1]octan-8-yl)-2-(pyridin-3-yloxy)quinazolin-7-yl)naphthalen-2-ol]
16 | 0.0001 to 10 | 100 to 1000 | Oc1cc(-c2ccc3c(N4C[C@H]5CC[C@@H](C4)N5)nc(N4CC(O)C4)nc3c2F)c2ccccc2c1 [P-0633, 1-(4-((1R,5S)-3,8-diazabicyclo[3.2.1]octan-3-yl)-8-fluoro-7-(3-hydroxynaphthalen-1-yl)quinazolin-2-yl)azetidin-3-ol]
17 | 100 to 1000 | 10 to 100 | Cc1c(N)cccc1-c1ccc2c(N3C[C@H]4CC[C@@H](C3)N4)nc(OC[C@@H]3CCCN3C)nc2c1 [P-0341, 3-(4-((1R,5S)-3,8-diazabicyclo[3.2.1]octan-3-yl)-2-(((S)-1-methylpyrrolidin-2-yl)methoxy)quinazolin-7-yl)-2-methylaniline]
18 | 0.0001 to 10 | 0.0001 to 10 | CN1CCC[C@H]1COc1nc(N2C[C@H]3CC[C@@H](C2)N3C(=O)CC(N)=O)c2ccc(-c3cc(O)cc4ccccc34)c(F)c2n1 [P-0398, 3-((1R,5S)-3-(8-fluoro-7-(3-hydroxynaphthalen-1-yl)-2-(((S)-1-methylpyrrolidin-2-yl)methoxy)quinazolin-4-yl)-3,8-diazabicyclo[3.2.1]octan-8-yl)-3-oxopropanamide]
